Experimental data reported in ChEMBL document CHEMBL3091337, “Novel piperidinylamino-diarylpyrimidine derivatives with dual structural conformations as potent HIV-1 non-nucleoside reverse transcriptase inhibitors” (Bioorg Med Chem Lett, 2013).
Structures can show the parent of a compound that is named as a salt.

Columns and labels:
[1] = Selectivity index, ratio of CC50 for human MT4 cells to EC50 for drug-resistant HIV1 RES056 harboring reverse transcriptase K103N/Y181C double mutant; format: toxicity, cell-based; conditions: read-out: Ratio CC50/EC50
[2] = Cytotoxicity against human MT4 cells after 5 days by MTT assay; format: cell-based
[3] = Selectivity index, ratio of CC50 for human MT4 cells to EC50 for HIV1 3B; format: toxicity, cell-based; conditions: read-out: Ratio CC50/EC50
[4] = test system: Human immunodeficiency virus 1; assay: Antiviral activity against drug-resistant HIV1 RES056 harboring reverse transcriptase K103N/Y181C double mutant infected in human MT-4 cells assessed as protection against virus-induced cytopathicity after 5 days by MTT assay; format: functional, organism-based; conditions: Human immunodeficiency virus 1, RES056, MT4, 120 h
[5] = test system: Human immunodeficiency virus 1; assay: Antiviral activity against HIV1 3B infected in human MT-4 cells assessed as protection against virus-induced cytopathicity after 5 days by MTT assay; format: functional, organism-based; conditions: Human immunodeficiency virus 1, 3B, MT4, 120 h
[6] = biological target: Human immunodeficiency virus type 1 reverse transcriptase (Human immunodeficiency virus 1, UniProt Q72547); assay: Inhibition of recombinant HIV1 reverse transcriptase using poly rA:dT as template/primer after 1 hr by ELISA

SMILES | selectivity ratio [1] | CC50 at 120 h [2] | selectivity ratio [3] | EC50 [4] | EC50 [5] | IC50 [6]
Cc1cc(C)c(Nc2cc(NC3CCN(Cc4ccc(S(N)(=O)=O)cc4)CC3)nc(Nc3ccc(C#N)cc3)n2)c(C)c1 | < 1 | 6.4 µM | 83 | > 6.4 µM | 0.077 µM | –
Cc1cc(C)c(Oc2cc(NC3CCNCC3)nc(Nc3ccc(C#N)cc3)n2)c(C)c1 | ≤ 5 | 9.6 µM | 69 | ≥ 1.8 µM | 0.14 µM | –
Cc1cc(C)c(Oc2cc(NC3CCN(Cc4ccncc4)CC3)nc(Nc3ccc(C#N)cc3)n2)c(C)c1 | < 1 | 11 µM | 44 | > 11 µM | 0.24 µM | –
O=C1Nc2ccc(Cl)cc2[C@@](C#CC2CC2)(C(F)(F)F)O1 [EFAVIRENZ] | – | > 6.3 µM | – | – | 0.007 µM | –
Cc1cc(C)c(Oc2cc(NC3CCN(Cc4ccc(S(C)(=O)=O)cc4)CC3)nc(Nc3ccc(C#N)cc3)n2)c(C)c1 | ≤ 8 | 124 µM | 934 | ≥ 16 µM | 0.13 µM | –
Cc1cc(C#N)cc(C)c1Oc1cc(NC2CCN(Cc3ccc(S(C)(=O)=O)cc3)CC2)nc(Nc2ccc(C#N)cc2)n1 | 1 | > 206 µM | > 3550 | > 206 µM | 0.058 µM | –
Cc1ccnc2c1NC(=O)c1cccnc1N2C1CC1 [NEVIRAPINE] | – | > 15 µM | – | 2.5 µM | 0.17 µM | –
Cc1cc(C#N)cc(C)c1Oc1cc(NC2CCNCC2)nc(Nc2ccc(C#N)cc2)n1 | 4 | 4.2 µM | 112 | 0.95 µM | 0.038 µM | –
Cc1cc(C)c(Oc2cc(NC3CCN(Cc4ccc(S(N)(=O)=O)cc4)CC3)nc(Nc3ccc(C#N)cc3)n2)c(C)c1 | < 1 | 11 µM | 61 | > 28 µM | 0.19 µM | –
Cc1cc(C#N)cc(C)c1Oc1cc(NC2CCN(Cc3ccc(S(N)(=O)=O)cc3)CC2)nc(Nc2ccc(C#N)cc2)n1 | 3 | 12 µM | 93 | 3.9 µM | 0.13 µM | –
CC(C)Nc1cccnc1N1CCN(C(=O)c2cc3cc(NS(C)(=O)=O)ccc3[nH]2)CC1 [DELAVIRDINE MESYLATE] | 1 | > 36 µM | > 227 | > 36 µM | 0.13 µM | –
Cc1cc(C#N)cc(C)c1Oc1cc(NC2CCN(Cc3ccncc3)CC2)nc(Nc2ccc(C#N)cc2)n1 | 22 | 100 µM | 2140 | 4.6 µM | 0.047 µM | 33 µM
